test system: Per2-dLuc U2OS reporter cells; test: Per2 assay for evaluating the potency of test compounds (high-throughput circadian assay); type: cell-based; details: Homo sapiens, U2OS, stable U2OS reporter cells harboring Per2-dLuc; luminescence monitored over 4-5 days at 35° C.
Summary of the method: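 Compounds (0.5% DMSO final) were added right after serum-shock synchronization of Per2-dLuc U2OS reporter cells in minimal medium containing 1.0 mM beetle luciferin. Reporter luminescence was followed at 35 °C for 4–5 days to extract rhythm period, amplitude and phase, and EC50 values were obtained from these.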

How did the EC50 turn out when CCN(CC(O)Cn1c2ccc(F)cc2c2ccc(F)cc21)S(C)(=O)=O (stereo not drawn) [Compound 164, N-(3-(2,6-Difluoro-9H-carbazol-9-yl)-2-hydroxypropyl)-N-ethylmethanesulfonamide] was run?
Its EC50 is 200 nM.

CC(O)(CN(C1(C)CC1)S(C)(=O)=O)Cn1c2ccc(F)cc2c2cc(F)ccc21 (stereo not drawn) [Compound 189, N-(3-(3,6-Difluoro-9H-carbazol-9-yl)-2-hydroxy-2-methylpropyl)-N-(1-methylcyclopropyl)methanesulfonamide] was tested. Which EC50 did it give?
The EC50 was 1290 nM.

O=S1(=O)c2ccccc2CN1CC(O)Cn1c2ccccc2c2ccccc21 (stereo not drawn) [Compound 34, N-(3-(9H-Carbazol-9-yl)-2-hydroxypropyl)-2,3-dihydrobenzo[d]isothiazole 1,1-dioxide] was tested. Which EC50 did it give?
Its EC50 is 31 nM.

CS(=O)(=O)N(CC(O)Cn1c2ccccc2c2ccccc21)c1cccc2ccccc12 (stereo not drawn) [Compound 27, N-(3-(9H-Carbazol-9-yl)-2-hydroxypropyl)-N-(naphthalen-1-yl)methanesulfonamide] was tested. Which EC50 did it give?
The EC50 was 250 nM.

For CC1CCCC1N(CC(O)Cn1c2ccc(F)cc2c2cc(F)ccc21)S(C)(=O)=O (stereo not drawn) [Compound 193A, N-(3-(3,6-Difluoro-9H-carbazol-9-yl)-2-hydroxypropyl)-N-(2-methylcyclopentyl)methanesulfonamide], which EC50 is on record?
The EC50 was 427 nM.

CC(C)c1ccc(N(CC(O)Cn2c3ccc(F)cc3c3cc(F)ccc32)S(C)(=O)=O)cc1 (stereo not drawn) [Compound 205, N-(3-(3,6-Difluoro-9H-carbazol-9-yl)-2-hydroxypropyl)-N-(4-isopropylphenyl)methanesulfonamide] was tested. Which EC50 did it give?
Its EC50 is 1210 nM.

CS(=O)(=O)N(CC(O)Cn1c2ccccc2c2ccccc21)CC1CC2CCC1C2 (stereo not drawn) [Compound 75, N-(3-(9H-Carbazol-9-yl)-2-hydroxypropyl)-N-(bicyclo[2.2.1]heptan-2-ylmethyl)methanesulfonamide] was tested. Which EC50 did it give?
The EC50 was 842 nM.

With O=S(=O)(CCC(F)(F)F)N(Cc1ccco1)CC(O)Cn1c2ccccc2c2ccccc21 (stereo not drawn) [Compound 6, N-(3-(9H-Carbazol-9-yl)-2-hydroxypropyl)-3,3,3-trifluoro-N-(furan-2-ylmethyl)propane-1-sulfonamide] as the compound, how does the EC50 read?
The EC50 was 964 nM.

With O=S(=O)(CC1CC1)N(Cc1ccco1)CC(O)Cn1c2ccccc2c2ccccc21 (stereo not drawn) [Compound 15, N-(3-(9H-Carbazol-9-yl)-2-hydroxypropyl)-1-cyclopropyl-N-(furan-2-ylmethyl)methanesulfonamide] as the compound, how does the EC50 read?
The EC50 was 592 nM.

How did the EC50 turn out when CC(C)CS(=O)(=O)N(Cc1ccco1)CC(O)Cn1c2ccccc2c2ccccc21 (stereo not drawn) [Compound 13, N-(3-(9H-Carbazol-9-yl)-2-hydroxypropyl)-N-(furan-2-ylmethyl)-2-methylpropane-1-sulfonamide] was run?
The EC50 was 454 nM.

Which EC50 does the source give for CS(=O)(=O)N(CC(O)Cn1c2ccccc2c2ccccc21)c1cccc(Cl)c1 (stereo not drawn) [Compound 64, N-(3-(9H-Carbazol-9-yl)-2-hydroxypropyl)-N-(3-chlorophenyl)methanesulfonamide] here?
The EC50 was 1000 nM.

With CCCN(CC(O)Cn1c2ccc(F)cc2c2ccc(F)cc21)S(C)(=O)=O (stereo not drawn) [Compound 163, N-(3-(2,6-Difluoro-9H-carbazol-9-yl)-2-hydroxypropyl)-N-propylmethanesulfonamide] as the compound, how does the EC50 read?
The EC50 was 206 nM.

O=S1(=O)N(CC(O)Cn2c3ccc(F)cc3c3cc(F)ccc32)CCCN1C1CCCCC1 (stereo not drawn) [Compound 222, 2-(3-(3,6-Difluoro-9H-carbazol-9-yl)-2-hydroxypropyl)-6-cyclohexyl-1,2,6-thiadiazinane-1,1-dioxide] was tested. Which EC50 did it give?
The EC50 was 7120 nM.

With CC(O)(CN1CCCN(C2CCC2)S1(=O)=O)Cn1c2ccc(F)cc2c2cc(F)ccc21 (stereo not drawn) [Compound 229, 2-(3-(3,6-Difluoro-9H-carbazol-9-yl)-2-hydroxy-2-methylpropyl)-6-cyclobutyl-1,2,6-thiadiazinane-1,1-dioxide] as the compound, how does the EC50 read?
Its EC50 is 4980 nM.

Which EC50 does the source give for CC1CCCC1N(CC(O)Cn1c2ccccc2c2ccccc21)S(C)(=O)=O (stereo not drawn) [Compound 136, N-(3-(9H-Carbazol-9-yl)-2-hydroxypropyl)-N-(2-methylcyclopentyl)methanesulfonamide] here?
Its EC50 is 113 nM.

Reference: patent US10383880B2 (Reset Therapeutics, Inc., priority 2012, dated 2019)
